# From article PMC9516332 (Frontiers in Oncology, 2022)
# Where two headings read alike, the source gives them in different places.
# How the values were obtained:
# [1] = test system: 134 cancer cell lines; assay: Cell viability assay (ATPlite, 72 hours), IC50 on cancer cell line panel
# [2] = test system: AP-1060 (ETV6-NTRK3); assay: Cell viability assay; conditions: read-out: IC50 in cell proliferation assay
smiles,measurement,setting,value
Cn1cnc2c(F)c(Nc3ccc(Br)cc3F)c(C(=O)NOCCO)cc21 [binimetinib],IC50,"[1]; Homo sapiens, MV4-11, read-out: IC50 in cell proliferation assay, MV4-11 cell line (FLT3 ITD)",511 nM
same,IC50,"[1]; Homo sapiens, MeWo, read-out: IC50 in cell proliferation assay, MeWo cell line",117 nM
same,IC50,"[1]; Homo sapiens, NCCIT, read-out: IC50 in cell proliferation assay, NCC-IT cell line",12100 nM
same,IC50,"[1]; Homo sapiens, NCI-H82, read-out: IC50 in cell proliferation assay, cell line NCI-H82",> 31600 nM
same,IC50,"[1]; Homo sapiens, NCI-H460, read-out: IC50 in cell proliferation assay, NCI-H460 cell line",120 nM
same,IC50,"[1]; Homo sapiens, NCI-H661, read-out: IC50 in cell proliferation assay, NCI-H661 cell line",3310 nM
same,IC50,"[1]; Homo sapiens, NCI-H716, read-out: IC50 in cell proliferation assay, cell line NCI-H716 (FGFR2-COL14A1)",27 nM
same,IC50,"[1]; Homo sapiens, NCI-H1650, read-out: IC50 in cell proliferation assay, NCI-H1650 cell line (EGFR exon19del)",8560 nM
same,IC50,"[1]; Homo sapiens, NCI-H1975, read-out: IC50 in cell proliferation assay, NCI-H1975 cell line (EGFR p.L858R + p.T790M)",201 nM
same,IC50,"[1]; Homo sapiens, NCI-H2228, read-out: IC50 in cell proliferation assay, NCI-H2228 cell line (EML4-ALK)",16 nM
same,IC50,"[1]; Homo sapiens, OVCAR-3, read-out: IC50 in cell proliferation assay, cell line OVCAR-3",> 31600 nM
same,IC50,"[1]; Homo sapiens, PFSK-1, read-out: IC50 in cell proliferation assay, cell line PFSK-1",> 31600 nM
same,IC50,"[1]; Homo sapiens, RL95-2, read-out: IC50 in cell proliferation assay, cell line RL95-2 (EGFR p.A289V)",24 nM
same,IC50,"[1]; Homo sapiens, RPMI-7951, read-out: IC50 in cell proliferation assay, cell line RPMI-7951 (BRAF p.V600E)",199 nM
same,IC50,"[1]; Homo sapiens, RS4-11, read-out: IC50 in cell proliferation assay, cell line RS4;11",> 31600 nM
same,IC50,"[1]; Homo sapiens, Rec1, read-out: IC50 in cell proliferation assay, cell line REC-1",> 31600 nM
same,IC50,"[1]; Homo sapiens, SHP77, read-out: IC50 in cell proliferation assay, cell line SHP-77",> 31600 nM
same,IC50,"[1]; Homo sapiens, SK-BR-3, read-out: IC50 in cell proliferation assay, cell line SK-BR-3 (ERBB2 amplification)",> 31600 nM
same,IC50,"[1]; Homo sapiens, SK-N-AS, read-out: IC50 in cell proliferation assay, cell line SK-N-AS",14 nM
same,IC50,"[1]; Homo sapiens, SK-N-FI, read-out: IC50 in cell proliferation assay, cell line SK-N-FI",798 nM
same,IC50,"[1]; Homo sapiens, SK-N-MC, read-out: IC50 in cell proliferation assay, cell line SK-N-MC",> 31600 nM
same,IC50,"[1]; Homo sapiens, SK-N-SH, read-out: IC50 in cell proliferation assay, cell line SK-N-SH (ALK p.F1174L)",59 nM
same,IC50,"[1]; Homo sapiens, SNU-5, read-out: IC50 in cell proliferation assay, cell line SNU-5 (MET amplification)",1460 nM
same,IC50,"[1]; Homo sapiens, SNU-16, read-out: IC50 in cell proliferation assay, cell line SNU-16 (FGFR2 amplification)",9730 nM
same,IC50,"[1]; Homo sapiens, SNU-C2B, read-out: IC50 in cell proliferation assay, cell line SNU-C2B (EGFR p.R165Q)",176 nM
same,IC50,"[1]; Homo sapiens, SU-DHL-1, read-out: IC50 in cell proliferation assay, cell line SU-DHL-1 (NPM1-ALK)",2840 nM
same,IC50,"[1]; Homo sapiens, SU-DHL-6, read-out: IC50 in cell proliferation assay, cell line SU-DHL-6",47 nM
same,IC50,"[1]; Homo sapiens, SUP-T1, read-out: IC50 in cell proliferation assay, cell line SUP-T1",> 31600 nM
same,IC50,"[1]; Homo sapiens, SW48, read-out: IC50 in cell proliferation assay, cell line SW48 (EGFR p.G719S)",14 nM
same,IC50,"[1]; Homo sapiens, SW480, read-out: IC50 in cell proliferation assay, cell line SW480",739 nM
same,IC50,"[1]; Homo sapiens, SW626, read-out: IC50 in cell proliferation assay, cell line SW626",32 nM
same,IC50,"[1]; Homo sapiens, SW780, read-out: IC50 in cell proliferation assay, cell line SW780 (FGFR3-BAIAP2L1)",272 nM
same,IC50,"[1]; Homo sapiens, SW837, read-out: IC50 in cell proliferation assay, cell line SW837",110 nM
same,IC50,"[1]; Homo sapiens, SW872, read-out: IC50 in cell proliferation assay, cell line SW872 (BRAF p.V600E)",34 nM
same,IC50,"[1]; Homo sapiens, SW900, read-out: IC50 in cell proliferation assay, cell line SW900",77 nM
same,IC50,"[1]; Homo sapiens, SW948, read-out: IC50 in cell proliferation assay, cell line SW948",82 nM
same,IC50,"[1]; Homo sapiens, SW982, read-out: IC50 in cell proliferation assay, cell line SW982 (BRAF p.V600E)",166 nM
same,IC50,"[1]; Homo sapiens, SW-620, read-out: IC50 in cell proliferation assay, cell line SW620",18 nM
same,IC50,"[1]; Homo sapiens, T98G, read-out: IC50 in cell proliferation assay, cell line T98G",11900 nM
same,IC50,"[1]; Homo sapiens, TCC-SUP, read-out: IC50 in cell proliferation assay, cell line TCCSUP",363 nM
same,IC50,"[1]; Homo sapiens, THP-1, read-out: IC50 in cell proliferation assay, cell line THP-1",17 nM
same,IC50,"[1]; Homo sapiens, U2OS, read-out: IC50 in cell proliferation assay, cell line U2OS",4120 nM
same,IC50,"[1]; Homo sapiens, U-87 MG, read-out: IC50 in cell proliferation assay, cell line U-87MG ATCC",8590 nM
same,IC50,"[1]; Homo sapiens, U-118-MG, read-out: IC50 in cell proliferation assay, cell line U-118MG",> 31600 nM
same,IC50,"[1]; Homo sapiens, UMUC3, read-out: IC50 in cell proliferation assay, cell line UM-UC-3",124 nM
same,IC50,"[1]; Hs766T, read-out: IC50 in cell proliferation assay, Hs 766T cell line",33 nM
same,IC50,"[1]; L-82, read-out: IC50 in cell proliferation assay, L-82 cell line (NPM1-ALK)",1900 nM
same,IC50,"[1]; Rh30, read-out: IC50 in cell proliferation assay, cell line Rh30",> 31600 nM
same,IC50,"[1]; read-out: IC50 in cell proliferation assay, 11-18 cell line (EGFR p.L858R)",> 31600 nM
same,IC50,"[1]; read-out: IC50 in cell proliferation assay, Hs 852.T cell line",271 nM
same,IC50,"[1]; read-out: IC50 in cell proliferation assay, JAR cell line",> 31600 nM
same,IC50,"[1]; read-out: IC50 in cell proliferation assay, cell line 5637",139 nM
same,IC50,"[1]; read-out: IC50 in cell proliferation assay, cell line A-388",696 nM
same,IC50,"[1]; read-out: IC50 in cell proliferation assay, cell line DB",> 31600 nM
same,IC50,"[1]; read-out: IC50 in cell proliferation assay, cell line DEL (NPM1-ALK)",> 31600 nM
same,IC50,"[1]; read-out: IC50 in cell proliferation assay, cell line ES-2 (BRAF p.V600E)",188 nM
same,IC50,"[1]; read-out: IC50 in cell proliferation assay, cell line PA-1",1350 nM
same,IC50,"[1]; read-out: IC50 in cell proliferation assay, cell line PC-3",> 31600 nM
same,IC50,"[1]; read-out: IC50 in cell proliferation assay, cell line RD",40 nM
same,IC50,"[1]; read-out: IC50 in cell proliferation assay, cell line RKO (BRAF p.V600E)",29 nM
same,IC50,"[1]; read-out: IC50 in cell proliferation assay, cell line RL",> 31600 nM
same,IC50,"[1]; read-out: IC50 in cell proliferation assay, cell line RT-4 (FGFR3-TACC3)",19000 nM
same,IC50,"[1]; read-out: IC50 in cell proliferation assay, cell line SR (NPM1-ALK)",4030 nM
same,IC50,"[1]; read-out: IC50 in cell proliferation assay, cell line T24",60 nM
same,IC50,"[1]; read-out: IC50 in cell proliferation assay, cell line TT (RET p.C634W)",1750 nM
same,IC50,"[1]; read-out: IC50 in cell proliferation assay, cell line VA-ES-BJ",8280 nM
same,IC50,[2],18.8 µM
